Results: ChEMBL document CHEMBL4800729 (2021)

Legend:
[1] = target: Serine/threonine-protein kinase Nek4 (Homo sapiens) (UniProt P51957); assay: NEK4(h) Millipore kinase panel; conditions: Compound concentration 1.0 uM
[2] = target: SRSF protein kinase 1 (Homo sapiens) (UniProt Q96SB4); assay: SRPK1(h) Millipore kinase panel; conditions: Compound concentration 1.0 uM
[3] = target: Homeodomain-interacting protein kinase 4 (Homo sapiens) (UniProt Q8NE63); assay: HIPK4(h) Millipore kinase panel; conditions: Compound concentration 1.0 uM
[4] = target: Mitogen-activated protein kinase 14 (Homo sapiens) (UniProt Q16539); assay: SAPK2a(h) Millipore kinase panel; conditions: Compound concentration 1.0 uM
[5] = target: 5-hydroxytryptamine receptor 2A (Homo sapiens) (UniProt P28223); conditions: Compound concentration 10.0 uM
[6] = target: Kappa-type opioid receptor (Homo sapiens) (UniProt P41145); conditions: Compound concentration 10.0 uM
[7] = target: eIF-2-alpha kinase GCN2 (Homo sapiens) (UniProt Q9P2K8); assay: GCN2(h) Millipore kinase panel; conditions: Compound concentration 1.0 uM
[8] = target: T1, GABA-A receptor; anion channel (Rattus norvegicus) (UniProt O09028+P15431+P18506+P18508+P19969+P20236+P23574+P23576+P28471+P28473+P30191+P62813+P63079+P63138+Q91ZM7+Q9ES14); conditions: Compound concentration 10.0 uM
[9] = target: PI3-kinase p110-delta/p85-alpha (Homo sapiens) (UniProt P27986+O00329); assay: PI3 Kinase (p110d/p85a)(h) Millipore kinase panel; format: protein-complex assay; conditions: Compound concentration 1.0 uM
[10] = target: Dual specificity protein kinase CLK4 (Homo sapiens) (UniProt Q9HAZ1); assay: CLK4(h) Millipore kinase panel; conditions: Compound concentration 1.0 uM
[11] = target: Serine/threonine-protein kinase B-raf (Homo sapiens) (UniProt P15056); assay: BRaf(h) Millipore kinase panel; conditions: Compound concentration 1.0 uM
[12] = target: 3-hydroxy-3-methylglutaryl-coenzyme A reductase (Homo sapiens) (UniProt P04035); assay: Inhibition of HMG-CoA Reductase at compound concentration of 10.0 uM in the Eurofins-Panlabs enzyme assay (Eurofins_assay_124010); set-up: substrate with concentration; conditions: Compound concentration 10.0 uM
[13] = target: mTOR/FKBP12A/FKBP12B (Homo sapiens) (UniProt P62942+P68106+P42345); assay: mTOR FKBP12(h) Millipore kinase panel; format: protein-complex assay; conditions: Compound concentration 1.0 uM
[14] = target: Serine/threonine-protein kinase SIK3 (Homo sapiens) (UniProt Q9Y2K2); assay: SIK3(h) Millipore kinase panel; conditions: Compound concentration 1.0 uM
Sequence of Serine/threonine-protein kinase SIK3 (Homo sapiens) (Q9Y2K2 whole entry, looked up): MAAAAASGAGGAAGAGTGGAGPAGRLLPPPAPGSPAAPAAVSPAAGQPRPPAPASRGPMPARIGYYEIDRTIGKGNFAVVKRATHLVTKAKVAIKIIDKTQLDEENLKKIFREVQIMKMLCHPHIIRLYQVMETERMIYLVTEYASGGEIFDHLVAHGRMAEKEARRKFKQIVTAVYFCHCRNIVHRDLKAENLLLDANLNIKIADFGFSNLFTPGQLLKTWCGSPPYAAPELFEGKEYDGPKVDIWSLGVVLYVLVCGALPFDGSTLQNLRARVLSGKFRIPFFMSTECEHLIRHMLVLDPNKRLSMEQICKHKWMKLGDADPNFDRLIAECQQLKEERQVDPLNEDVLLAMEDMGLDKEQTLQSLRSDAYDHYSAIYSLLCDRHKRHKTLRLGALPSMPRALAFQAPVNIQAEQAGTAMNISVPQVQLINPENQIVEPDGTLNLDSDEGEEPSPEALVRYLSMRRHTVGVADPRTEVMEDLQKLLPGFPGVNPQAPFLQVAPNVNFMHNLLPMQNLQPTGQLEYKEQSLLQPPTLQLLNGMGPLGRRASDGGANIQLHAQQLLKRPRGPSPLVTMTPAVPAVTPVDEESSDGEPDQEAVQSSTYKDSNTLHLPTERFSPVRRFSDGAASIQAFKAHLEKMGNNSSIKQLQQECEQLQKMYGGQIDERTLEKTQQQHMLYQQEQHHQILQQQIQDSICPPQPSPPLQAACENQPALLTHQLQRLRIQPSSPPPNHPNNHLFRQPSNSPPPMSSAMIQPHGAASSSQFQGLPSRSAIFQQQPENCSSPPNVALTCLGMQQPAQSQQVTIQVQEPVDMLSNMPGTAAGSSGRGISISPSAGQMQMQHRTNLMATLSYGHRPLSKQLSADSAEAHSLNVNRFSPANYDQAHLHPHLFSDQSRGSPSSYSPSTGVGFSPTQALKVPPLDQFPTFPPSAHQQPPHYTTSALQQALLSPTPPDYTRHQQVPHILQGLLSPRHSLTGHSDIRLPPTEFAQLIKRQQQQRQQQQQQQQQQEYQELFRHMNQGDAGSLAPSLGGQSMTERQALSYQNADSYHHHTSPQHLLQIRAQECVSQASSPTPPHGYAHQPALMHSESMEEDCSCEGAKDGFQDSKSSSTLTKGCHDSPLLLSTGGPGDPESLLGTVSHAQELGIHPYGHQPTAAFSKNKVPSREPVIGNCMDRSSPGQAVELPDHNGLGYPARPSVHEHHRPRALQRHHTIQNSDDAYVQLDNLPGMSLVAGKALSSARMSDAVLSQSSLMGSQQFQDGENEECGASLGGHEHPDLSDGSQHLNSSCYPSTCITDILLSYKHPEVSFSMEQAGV

[15] = species: Homo sapiens; assay: CDK9/cyclinT1(h) Millipore kinase panel; conditions: Compound concentration 1.0 uM
[16] = target: Ribosomal protein S6 kinase alpha-6 (Homo sapiens) (UniProt Q9UK32); assay: Rsk4(h) Millipore kinase panel; conditions: Compound concentration 1.0 uM
[17] = target: Tyrosine-protein kinase HCK (Homo sapiens) (UniProt P08631); assay: Hck(h) Millipore kinase panel; conditions: Compound concentration 1.0 uM
[18] = target: Tyrosine-protein kinase Tec (Homo sapiens) (UniProt P42680); assay: Tec(h) activated Millipore kinase panel; conditions: Compound concentration 1.0 uM
[19] = target: Serine/threonine-protein kinase MRCK gamma (Homo sapiens) (UniProt Q6DT37); assay: MRCKgamma(h) Millipore kinase panel; conditions: Compound concentration 1.0 uM
[20] = target: Ephrin type-A receptor 5 (Homo sapiens) (UniProt P54756); assay: EphA5(h) Millipore kinase panel; conditions: Compound concentration 1.0 uM
Sequence of Ephrin type-A receptor 5 (Homo sapiens) (P54756 whole entry, canonical isoform): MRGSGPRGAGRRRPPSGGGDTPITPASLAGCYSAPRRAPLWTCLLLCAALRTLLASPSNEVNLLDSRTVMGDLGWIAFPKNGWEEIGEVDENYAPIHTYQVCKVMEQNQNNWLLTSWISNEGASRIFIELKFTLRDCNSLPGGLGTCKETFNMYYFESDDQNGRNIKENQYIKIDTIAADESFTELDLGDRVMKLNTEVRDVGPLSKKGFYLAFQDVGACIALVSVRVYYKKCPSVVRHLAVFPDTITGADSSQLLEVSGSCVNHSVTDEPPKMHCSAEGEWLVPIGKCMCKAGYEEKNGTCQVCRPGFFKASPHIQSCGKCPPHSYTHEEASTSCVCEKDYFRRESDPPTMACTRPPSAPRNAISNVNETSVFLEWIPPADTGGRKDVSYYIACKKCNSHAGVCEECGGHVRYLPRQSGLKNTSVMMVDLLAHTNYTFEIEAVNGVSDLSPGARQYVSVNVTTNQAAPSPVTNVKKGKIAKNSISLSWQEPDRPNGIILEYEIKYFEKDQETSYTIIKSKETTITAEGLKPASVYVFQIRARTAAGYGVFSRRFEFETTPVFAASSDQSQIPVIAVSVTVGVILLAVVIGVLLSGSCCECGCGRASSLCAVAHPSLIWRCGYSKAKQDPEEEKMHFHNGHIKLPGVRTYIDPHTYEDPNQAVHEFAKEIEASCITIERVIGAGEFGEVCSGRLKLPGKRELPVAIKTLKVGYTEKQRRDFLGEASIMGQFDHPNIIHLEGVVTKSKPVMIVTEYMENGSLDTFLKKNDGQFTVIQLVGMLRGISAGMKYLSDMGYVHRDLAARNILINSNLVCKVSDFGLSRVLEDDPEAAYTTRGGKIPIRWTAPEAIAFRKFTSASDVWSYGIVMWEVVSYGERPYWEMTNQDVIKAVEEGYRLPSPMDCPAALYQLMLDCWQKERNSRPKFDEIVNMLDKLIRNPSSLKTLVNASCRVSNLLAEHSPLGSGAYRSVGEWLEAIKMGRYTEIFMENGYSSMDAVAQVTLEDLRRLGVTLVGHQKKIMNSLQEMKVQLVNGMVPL

[21] = target: Phosphatidylinositol 4,5-bisphosphate 3-kinase catalytic subunit gamma isoform (Homo sapiens) (UniProt P48736); assay: PI3 Kinase (p120g)(h) Millipore kinase panel; conditions: Compound concentration 1.0 uM
[22] = target: D(2) dopamine receptor (Homo sapiens) (UniProt P14416); conditions: Compound concentration 10.0 uM
Sequence of D(2) dopamine receptor (Homo sapiens) (P14416 whole entry): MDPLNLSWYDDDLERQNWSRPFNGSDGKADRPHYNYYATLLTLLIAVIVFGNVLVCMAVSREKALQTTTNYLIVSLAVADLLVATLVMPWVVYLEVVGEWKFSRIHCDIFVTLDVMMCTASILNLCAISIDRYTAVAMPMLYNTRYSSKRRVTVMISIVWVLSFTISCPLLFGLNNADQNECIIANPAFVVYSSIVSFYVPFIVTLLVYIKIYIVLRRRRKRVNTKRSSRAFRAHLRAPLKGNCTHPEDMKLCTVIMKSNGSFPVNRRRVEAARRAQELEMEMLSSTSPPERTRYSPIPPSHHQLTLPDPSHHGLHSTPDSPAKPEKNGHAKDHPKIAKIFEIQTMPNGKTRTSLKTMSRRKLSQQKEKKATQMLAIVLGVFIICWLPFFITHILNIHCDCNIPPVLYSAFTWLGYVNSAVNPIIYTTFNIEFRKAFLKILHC

[23] = target: Fibroblast growth factor receptor 2 (Homo sapiens) (UniProt P21802); assay: FGFR2(h) Millipore kinase panel; conditions: Compound concentration 1.0 uM
[24] = target: Proto-oncogene tyrosine-protein kinase receptor Ret (Homo sapiens) (UniProt P07949); assay: Ret(h) Millipore kinase panel; conditions: Compound concentration 1.0 uM
[25] = target: Transcription initiation factor TFIID subunit 1-like (Homo sapiens) (UniProt Q8IZX4); assay: TAF1L(h) Millipore kinase panel; conditions: Compound concentration 1.0 uM
[26] = target: Ephrin type-B receptor 4 (Homo sapiens) (UniProt P54760); assay: EphB4(h) Millipore kinase panel; conditions: Compound concentration 1.0 uM
[27] = target: Serine/threonine-protein kinase STK11 (Homo sapiens) (UniProt Q15831); assay: LKB1(h) Millipore kinase panel; conditions: Compound concentration 1.0 uM
[28] = target: T2, Muscarinic acetylcholine receptor M1 (Homo sapiens) (UniProt P11229); conditions: Compound concentration 10.0 uM
T2 sequence (whole entry): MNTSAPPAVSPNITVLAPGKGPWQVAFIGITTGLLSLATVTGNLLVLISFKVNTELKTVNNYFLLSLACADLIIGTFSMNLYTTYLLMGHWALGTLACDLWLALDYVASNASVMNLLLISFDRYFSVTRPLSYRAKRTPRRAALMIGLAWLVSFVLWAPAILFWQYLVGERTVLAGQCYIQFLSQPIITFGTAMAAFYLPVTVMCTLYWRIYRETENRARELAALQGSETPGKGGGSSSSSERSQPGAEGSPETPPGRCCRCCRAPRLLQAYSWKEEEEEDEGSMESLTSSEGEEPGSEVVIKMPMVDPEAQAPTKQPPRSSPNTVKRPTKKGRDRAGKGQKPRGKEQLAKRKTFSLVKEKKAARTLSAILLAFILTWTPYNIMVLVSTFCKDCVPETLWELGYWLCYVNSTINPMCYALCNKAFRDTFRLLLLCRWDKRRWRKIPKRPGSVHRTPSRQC

[29] = target: T1, GABA-A receptor; anion channel (Rattus norvegicus); conditions: Compound concentration 10.0 uM; remark: listed apart in the source
[30] = target: Calcium/calmodulin-dependent protein kinase type IV (Homo sapiens) (UniProt Q16566); assay: CaMKIV(h) Millipore kinase panel; conditions: Compound concentration 1.0 uM
Sequence of Calcium/calmodulin-dependent protein kinase type IV (Homo sapiens) (Q16566 whole entry): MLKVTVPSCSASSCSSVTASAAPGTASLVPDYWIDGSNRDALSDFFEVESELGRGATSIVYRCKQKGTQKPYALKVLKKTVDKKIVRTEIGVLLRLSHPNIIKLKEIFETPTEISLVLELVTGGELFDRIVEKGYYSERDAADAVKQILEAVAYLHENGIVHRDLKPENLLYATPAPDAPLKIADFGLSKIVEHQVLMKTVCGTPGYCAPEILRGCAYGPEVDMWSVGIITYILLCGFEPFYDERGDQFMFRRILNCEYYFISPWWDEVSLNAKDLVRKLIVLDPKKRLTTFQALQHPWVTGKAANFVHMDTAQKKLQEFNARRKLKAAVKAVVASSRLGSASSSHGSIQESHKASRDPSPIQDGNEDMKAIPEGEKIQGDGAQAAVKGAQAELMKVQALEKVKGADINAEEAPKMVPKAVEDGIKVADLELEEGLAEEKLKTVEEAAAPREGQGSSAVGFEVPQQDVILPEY

[31] = target: Dual specificity mitogen-activated protein kinase kinase 2 (Homo sapiens) (UniProt P36507); assay: MEK2(h) Millipore kinase panel; conditions: Compound concentration 1.0 uM
Sequence of Dual specificity mitogen-activated protein kinase kinase 2 (Homo sapiens) (P36507 whole entry): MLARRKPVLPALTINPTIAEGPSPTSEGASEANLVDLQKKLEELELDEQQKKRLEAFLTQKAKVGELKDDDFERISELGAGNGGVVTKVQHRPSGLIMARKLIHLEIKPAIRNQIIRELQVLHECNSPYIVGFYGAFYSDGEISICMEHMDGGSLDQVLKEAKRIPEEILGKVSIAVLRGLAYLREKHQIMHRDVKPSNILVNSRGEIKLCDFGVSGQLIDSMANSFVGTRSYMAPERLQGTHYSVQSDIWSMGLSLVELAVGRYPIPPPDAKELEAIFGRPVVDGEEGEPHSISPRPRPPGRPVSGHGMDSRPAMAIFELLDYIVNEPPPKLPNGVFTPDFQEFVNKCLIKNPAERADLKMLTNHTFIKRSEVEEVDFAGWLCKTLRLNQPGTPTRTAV

[32] = target: Serine/threonine-protein kinase PAK 6 (Homo sapiens) (UniProt Q9NQU5); assay: PAK6(h) Millipore kinase panel; conditions: Compound concentration 1.0 uM
[33] = target: Mitogen-activated protein kinase 1 (Homo sapiens) (UniProt P28482); assay: MAPK1(h) Millipore kinase panel; conditions: Compound concentration 1.0 uM
[34] = target: Serine/threonine-protein kinase PAK 2 (Homo sapiens) (UniProt Q13177); assay: PAK2(h) Millipore kinase panel; conditions: Compound concentration 1.0 uM
[35] = target: D(1A) dopamine receptor (Homo sapiens, UniProt P21728); conditions: Compound concentration 10.0 uM
[36] = target: Interleukin-1 receptor-associated kinase 1 (Homo sapiens) (UniProt P51617); assay: IRAK1(h) Millipore kinase panel; conditions: Compound concentration 1.0 uM
[37] = target: Activin receptor type-1 (Homo sapiens) (UniProt Q04771); assay: ALK2(h) Millipore kinase panel; conditions: Compound concentration 1.0 uM
[38] = target: Tyrosine-protein kinase Lck (Homo sapiens) (UniProt P06239); assay: Lck(h) activated Millipore kinase panel; conditions: Compound concentration 1.0 uM
Sequence of Tyrosine-protein kinase Lck (Homo sapiens) (P06239 2-509 limits assumed): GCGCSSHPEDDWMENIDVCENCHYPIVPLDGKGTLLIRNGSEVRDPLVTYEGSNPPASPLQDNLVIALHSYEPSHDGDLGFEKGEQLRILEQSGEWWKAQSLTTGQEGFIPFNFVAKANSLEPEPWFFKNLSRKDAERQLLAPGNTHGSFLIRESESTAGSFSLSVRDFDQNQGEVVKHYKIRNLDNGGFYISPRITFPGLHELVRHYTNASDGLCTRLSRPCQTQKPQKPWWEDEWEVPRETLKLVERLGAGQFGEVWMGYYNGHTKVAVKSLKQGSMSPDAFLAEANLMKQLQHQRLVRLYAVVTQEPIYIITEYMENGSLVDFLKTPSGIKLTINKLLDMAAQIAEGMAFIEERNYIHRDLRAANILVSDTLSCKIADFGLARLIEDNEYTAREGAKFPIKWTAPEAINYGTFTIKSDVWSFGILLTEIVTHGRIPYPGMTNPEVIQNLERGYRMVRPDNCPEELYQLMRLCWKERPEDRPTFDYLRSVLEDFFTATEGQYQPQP

Measured: inhibition

Sequence of Serine/threonine-protein kinase Nek4 (Homo sapiens) (P51957 whole entry, looked up): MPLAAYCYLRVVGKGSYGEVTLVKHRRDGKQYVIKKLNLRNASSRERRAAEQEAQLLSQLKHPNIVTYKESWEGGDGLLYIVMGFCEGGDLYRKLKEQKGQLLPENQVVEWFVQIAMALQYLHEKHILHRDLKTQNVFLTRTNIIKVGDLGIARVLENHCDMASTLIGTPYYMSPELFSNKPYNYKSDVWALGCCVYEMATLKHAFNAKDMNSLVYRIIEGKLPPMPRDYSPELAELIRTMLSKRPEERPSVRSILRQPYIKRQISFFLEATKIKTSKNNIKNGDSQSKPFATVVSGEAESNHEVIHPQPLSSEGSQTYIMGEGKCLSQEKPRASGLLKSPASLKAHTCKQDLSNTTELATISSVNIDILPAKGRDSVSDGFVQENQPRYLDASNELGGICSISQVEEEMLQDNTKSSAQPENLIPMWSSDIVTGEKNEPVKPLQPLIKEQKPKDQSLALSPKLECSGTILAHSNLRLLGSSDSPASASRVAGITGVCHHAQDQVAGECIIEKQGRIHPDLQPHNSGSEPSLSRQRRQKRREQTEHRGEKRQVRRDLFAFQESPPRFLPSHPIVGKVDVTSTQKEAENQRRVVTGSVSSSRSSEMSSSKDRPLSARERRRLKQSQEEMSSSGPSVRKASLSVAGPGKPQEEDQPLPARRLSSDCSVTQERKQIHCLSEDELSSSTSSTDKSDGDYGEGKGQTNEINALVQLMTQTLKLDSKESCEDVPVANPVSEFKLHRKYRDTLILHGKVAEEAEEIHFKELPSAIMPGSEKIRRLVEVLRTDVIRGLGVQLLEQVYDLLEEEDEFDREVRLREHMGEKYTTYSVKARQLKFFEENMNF

CC[C@@H](Nc1c(C#N)c(-c2ccc(-c3cccc(C)c3F)cc2)nc2cnccc12)C(=O)O [BAY-091]
inactive: [1] 32.1% | [2] 3.4% | [3] 15.7% | [4] 2.76% | [5] -8.43% | [6] 0.48% | [7] -3.21% | [8] 29.9% | [9] 30.9% | [10] 18.8% | [11] 23.5% | [12] -7% | [13] 1.38% | [14] 5.14% | [15] 11.8% | [16] -6.19% | [17] 0.45% | [18] 4.62% | [19] 5.46% | [20] 15.8% | [21] 14.4% | [22] 10% | [23] 9.63% | [24] -3.56% | [25] -3.49% | [26] 11.8% | [27] 5.7% | [28] -5.6% | [29] 3% | [30] 7.26% | [31] -9.56% | [32] -5.79% | [33] 6.43% | [34] 24.9% | [35] 15% | [36] -3.31% | [37] 5.14% | [38] -3.67%
